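Where inhibition never reached the appropriate level, the endpoint shown equals the highest concentration tested. Otherwise, values were interpolated linearly from a five-concentration, 48-hour dose response in 96-well plates. GI50 = concentration required for 50% inhibition of growth. TGI is the concentration that stops growth completely.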
Assays:
Assay in all cases: DTP human tumour cell line panel, 48 h
RXF 393 renal = tested on: RXF 393 renal
UO-31 renal = tested on: UO-31 renal
PC-3 prostate = tested on: PC-3 prostate
SK-MEL-2 melanoma = tested on: SK-MEL-2 melanoma
DU-145 prostate = tested on: DU-145 prostate
SNB-19 CNS = tested on: SNB-19 CNS
UACC-62 melanoma = tested on: UACC-62 melanoma
ACHN renal = tested on: ACHN renal
SK-MEL-5 melanoma = tested on: SK-MEL-5 melanoma
U251 CNS = tested on: U251 CNS
HCC-2998 colon = tested on: HCC-2998 colon
BT-549 breast = tested on: BT-549 breast
MDA-MB-435 = tested on: MDA-MB-435
SF-295 CNS = tested on: SF-295 CNS
UACC-257 melanoma = tested on: UACC-257 melanoma
NCI-H522 lung = tested on: NCI-H522 lung
HOP-62 NSCLC = tested on: HOP-62 NSCLC
HOP-92 NSCLC = tested on: HOP-92 NSCLC
M14 melanoma = tested on: M14 melanoma
EKVX NSCLC = tested on: EKVX NSCLC
SK-OV-3 ovarian = tested on: SK-OV-3 ovarian
OVCAR-3 ovarian = tested on: OVCAR-3 ovarian
MDA-MB-231 breast = tested on: MDA-MB-231 breast
CAKI-1 renal = tested on: CAKI-1 renal
MALME-3M melanoma = tested on: MALME-3M melanoma
786-0 renal = tested on: 786-0 renal
SNB-75 CNS = tested on: SNB-75 CNS
LOX IMVI melanoma = tested on: LOX IMVI melanoma
RPMI-8226 leukemia = tested on: RPMI-8226 leukemia
HCT-116 colon = tested on: HCT-116 colon
MOLT-4 leukemia = tested on: MOLT-4 leukemia
SF-539 CNS = tested on: SF-539 CNS
A549 NSCLC = tested on: A549 NSCLC
SN12C renal = tested on: SN12C renal
SK-MEL-28 melanoma = tested on: SK-MEL-28 melanoma
A498 renal = tested on: A498 renal
IGROV1 ovarian = tested on: IGROV1 ovarian
SW-620 colon = tested on: SW-620 colon
KM12 colon = tested on: KM12 colon
COLO 205 colon = tested on: COLO 205 colon
NCI-H226 lung = tested on: NCI-H226 lung
NCI-H23 lung = tested on: NCI-H23 lung
CCRF-CEM leukemia = tested on: CCRF-CEM leukemia
MDA-MB-468 breast = tested on: MDA-MB-468 breast
T-47D breast = tested on: T-47D breast
NCI-H460 lung = tested on: NCI-H460 lung
NCI/ADR-RES ovarian = tested on: NCI/ADR-RES ovarian
TK-10 renal = tested on: TK-10 renal
HCT-15 colon = tested on: HCT-15 colon
SF-268 CNS = tested on: SF-268 CNS
MCF7 breast = tested on: MCF7 breast
HL-60(TB) leukemia = tested on: HL-60(TB) leukemia
OVCAR-5 ovarian = tested on: OVCAR-5 ovarian
HS 578T breast = tested on: HS 578T breast

With Cc1ccc(C2CC(c3ccc(S(=O)(=O)NCCNc4nc(Nc5ccc(F)cc5)nc(N(C)C)n4)cc3)=Nc3c(N)nc(N)nc3N2)cc1 (stereo not drawn) the GI50 (RXF 393 renal) was 2270 nM, the TGI (RXF 393 renal) was 9.12 µM and the GI50 (UO-31 renal) was over 100 µM. It also gave a TGI (UO-31 renal) of over 100 µM, a GI50 (PC-3 prostate) of 3.33 µM and a TGI (PC-3 prostate) of over 100 µM. For the same compound, the GI50 (SK-MEL-2 melanoma) was 11.2 µM, the TGI (SK-MEL-2 melanoma) was 77.7 µM and the GI50 (DU-145 prostate) was over 100 µM. It also gave a TGI (DU-145 prostate) of over 100 µM, a GI50 (SNB-19 CNS) of 13.1 µM and a TGI (SNB-19 CNS) of over 100 µM. It also gave a GI50 (UACC-62 melanoma) of 20.9 µM, a TGI (UACC-62 melanoma) of over 100 µM and a GI50 (ACHN renal) of over 100 µM. For the same compound, the TGI (ACHN renal) was over 100 µM, the GI50 (SK-MEL-5 melanoma) was 4.98 µM and the TGI (SK-MEL-5 melanoma) was 20.6 µM. The GI50 (U251 CNS) was 7.08 µM, the TGI (U251 CNS) was over 100 µM and the GI50 (HCC-2998 colon) was 2930 nM. For the same compound, the TGI (HCC-2998 colon) was 41.1 µM, the GI50 (BT-549 breast) was 5.46 µM and the TGI (BT-549 breast) was 59.4 µM. The GI50 (MDA-MB-435) was 8.79 µM, the TGI (MDA-MB-435) was over 100 µM and the GI50 (SF-295 CNS) was 6.6 µM. The TGI (SF-295 CNS) was over 100 µM, the GI50 (UACC-257 melanoma) was 26 µM and the TGI (UACC-257 melanoma) was over 100 µM. The GI50 (NCI-H522 lung) was 21.3 µM, the TGI (NCI-H522 lung) was over 100 µM and the GI50 (HOP-62 NSCLC) was over 100 µM. The TGI (HOP-62 NSCLC) was over 100 µM, the GI50 (HOP-92 NSCLC) was 2540 nM and the TGI (HOP-92 NSCLC) was 21 µM. For the same compound, the GI50 (M14 melanoma) was 4.56 µM, the TGI (M14 melanoma) was over 100 µM and the GI50 (EKVX NSCLC) was 5.84 µM. It also gave a TGI (EKVX NSCLC) of over 100 µM, a GI50 (SK-OV-3 ovarian) of over 100 µM and a TGI (SK-OV-3 ovarian) of over 100 µM. For the same compound, the GI50 (OVCAR-3 ovarian) was 9.93 µM, the TGI (OVCAR-3 ovarian) was over 100 µM and the GI50 (MDA-MB-231 breast) was 3.86 µM. The TGI (MDA-MB-231 breast) was over 100 µM, the GI50 (CAKI-1 renal) was 8.06 µM and the TGI (CAKI-1 renal) was over 100 µM. For the same compound, the GI50 (MALME-3M melanoma) was 4.65 µM, the TGI (MALME-3M melanoma) was 33.2 µM and the GI50 (786-0 renal) was 7.06 µM. The TGI (786-0 renal) was over 100 µM, the GI50 (SNB-75 CNS) was over 100 µM and the TGI (SNB-75 CNS) was over 100 µM. It also gave a GI50 (LOX IMVI melanoma) of 2090 nM, a TGI (LOX IMVI melanoma) of 5.11 µM and a GI50 (RPMI-8226 leukemia) of 2940 nM. It also gave a TGI (RPMI-8226 leukemia) of over 100 µM, a GI50 (HCT-116 colon) of 3.81 µM and a TGI (HCT-116 colon) of over 100 µM. The GI50 (MOLT-4 leukemia) was 2200 nM, the TGI (MOLT-4 leukemia) was 7.53 µM and the GI50 (SF-539 CNS) was 3.29 µM. It also gave a TGI (SF-539 CNS) of 78.9 µM, a GI50 (A549 NSCLC) of over 100 µM and a TGI (A549 NSCLC) of over 100 µM. It also gave a GI50 (SN12C renal) of over 100 µM, a TGI (SN12C renal) of over 100 µM and a GI50 (SK-MEL-28 melanoma) of 26.9 µM. For the same compound, the TGI (SK-MEL-28 melanoma) was over 100 µM, the GI50 (A498 renal) was over 100 µM and the TGI (A498 renal) was over 100 µM. For the same compound, the GI50 (IGROV1 ovarian) was 64.4 µM, the TGI (IGROV1 ovarian) was over 100 µM and the GI50 (SW-620 colon) was 8.04 µM. For the same compound, the TGI (SW-620 colon) was over 100 µM, the GI50 (KM12 colon) was 4.56 µM and the TGI (KM12 colon) was over 100 µM. For the same compound, the GI50 (COLO 205 colon) was 11.5 µM, the TGI (COLO 205 colon) was over 100 µM and the GI50 (NCI-H226 lung) was over 100 µM. It also gave a TGI (NCI-H226 lung) of over 100 µM, a GI50 (NCI-H23 lung) of 78.8 µM and a TGI (NCI-H23 lung) of over 100 µM. For the same compound, the GI50 (CCRF-CEM leukemia) was 2810 nM, the TGI (CCRF-CEM leukemia) was over 100 µM and the GI50 (MDA-MB-468 breast) was 2720 nM. The TGI (MDA-MB-468 breast) was 8.52 µM, the GI50 (T-47D breast) was 8.75 µM and the TGI (T-47D breast) was over 100 µM. For the same compound, the GI50 (NCI-H460 lung) was 4.76 µM, the TGI (NCI-H460 lung) was over 100 µM and the GI50 (NCI/ADR-RES ovarian) was over 100 µM. The TGI (NCI/ADR-RES ovarian) was over 100 µM, the GI50 (TK-10 renal) was over 100 µM and the TGI (TK-10 renal) was over 100 µM. The GI50 (HCT-15 colon) was 4.95 µM, the TGI (HCT-15 colon) was over 100 µM and the GI50 (SF-268 CNS) was 7.53 µM. For the same compound, the TGI (SF-268 CNS) was over 100 µM, the GI50 (MCF7 breast) was 3.08 µM and the TGI (MCF7 breast) was over 100 µM. The GI50 (HL-60(TB) leukemia) was 2940 nM, the TGI (HL-60(TB) leukemia) was 20.2 µM and the GI50 (OVCAR-5 ovarian) was over 100 µM. It also gave a TGI (OVCAR-5 ovarian) of over 100 µM, a GI50 (HS 578T breast) of 19.4 µM and a TGI (HS 578T breast) of over 100 µM.

Source: PubChem BioAssay (NCI)
